Where “and” joins values, the source holds several entries; their conditions need not be identical. Equal values may be shown once.
Test system: 494315-158-R-J1-PDC complex spheroid growth, percent test/control
Test: Anticancer human tumor 494315-158-R-J1-PDC patient-derived soft tissue sarcoma cell line growth inhibition [Asc]
Settings: for viability, T/C: stronger effect = lower value
Description: Multicellular complex tumor spheroid response to apoptosis pathway targeting inhibitors Alrizomadlin, Pelcitoclax, and Dasminapant in combination with a variety of drugs and investigational agents in selected tumor cell lines
The MDM2 inhibitor alrizomadlin, the Bcl-2/Bcl-xL inhibitor pelcitoclax, and the IAPs inhibitor dasminapant were evaluated both individually and in combination with standard of care and investigational anticancer small molecules within a complex spheroid model of solid tumors. . Complex spheroids include a stromal component modeled by human endothelial cells (HUVEC) and fibroblasts modeled by human mesenchymal stem cells (MSCs). The concentration ranges selected for each drug and investigational agent were based upon clinically achievable concentrations if the clinical Cmax of the agent was known.
Compounds. The drugs and investigational agents: alrizomadlin (APG-115; NSC831270), pelcitoclax (APG-1252; NSC835773), dasminapant (APG-1387;NSC834197), TAK-243 (NSC785004), copanlisib (NSC809693), olaparib (NSC753686), talazoparib (NSC767125), cobimetinib (NSC 768068), eltanexor (KPT-8602, NSC 794443), abemaciclib (NSC 768073), sotorasib (NSC818433), adagrasib (NSC 831453), MRTX-1133 (NSC 836407), Iadademestat (ORY1001, NSC 806812), and RMC-4630 (NSC839698), were obtained from the NCI Developmental Therapeutics Program Chemical Repository. The FDA-approved anticancer drug set is available from the Developmental Therapeutics Program at https://dtp.cancer.gov/organization/dscb/obtaining/available plates.htm. […] The stock solutions were prepared in dimethyl sulfoxide (DMSO, Sigma-Aldrich, St. Louis, MO, cat. D2650) at 800-fold the tested concentration and stored at -70 degrees C prior to their use. All drugs and investigational agents were tested over a range starting from a high concentration at or near the clinical Cmax and decreasing in half-log increments. If the clinical Cmax for an agent had not been determined, the highest concentration tested was 10 microM.
The patient-derived cancer (PDC) cell lines include five colon adenocarcinomas: 186277-243-T-J2-PDC, 616215-338-R-J1-PDC, 439559-082-T-J2-PDC, 463943-066-T-J2-PDC, and 519858-162-T-J1-PDC; three pancreatic carcinomas: 323965-272-R-J2-PDC, 521955-158-R6-J3-PDC, and 521955-158-R2-J5-PDC; two uterine sarcomas: 327498-152-R-J2-PDC and 993429-296-R-J1-PDC; two rhabdomyosarcomas: 755483-174-R-J1-PDC and 772245-204-R-J1-PDC; two soft tissue sarcomas: 126254-015-R-J1-PDC and 494315-158-R-J1-PDC; two malignant fibrous histiocytomas: 317291-083-R-J1-PDC and 596521-263-R-J1-PDC; two breast carcinomas: 171881-019-R-J1-PDC and 885512-296-R-J2-PDC; and one ovarian carcinoma: 6556581-035-R-J-PDC were obtained from the NCI PDMR, (https://pdmr.cancer.gov). The established cell lines HSSY-2 synovial sarcoma (RRID:CVCL 8719), SYO-1 synovial sarcoma (RRID:CVCL_7146), MPNST malignant peripheral neural sheath tumor were obtained from the Sloan Kettering Institute. The following established cell lines were purchased from the American Type Culture Collection (ATCC, Manassas, VA), Sor the received from the NCI repository:, PANC-1 pancreatic carcinoma (CRL-1469, RRID:CVCL_0480), OVCAR-5 ovarian carcinoma (RRID:CVCL_1628), OVCAR-8 ovarian carcinoma (RRID:CVCL_1629), , MCF-7 breast carcinoma (CRL-12584, RRID:CVCL_0031), MDA-MB-231 breast carcinoma (CRL-12532, RRID:CVCL_0062), NCI-H1876 small cell lung carcinoma (CRL-5902, RRID:CVCL_1503), NCI-H510A small cell lung carcinoma (HTB-184, RRID:CVCL_1565), NCI-H1417 (CRL-5869, RRID:CVCL_1469), and NCI-H196 small cell lung carcinoma (CRL-5823, RRID:CVCL_1509). Dr. Peter Houghton (Greehey Children's Cancer Research Institute, University of Texas Health Science Center, San Antonio, TX) provided Rh-18 rhabdomyosarcoma (RRID:CVCL_1659). Pooled donor human umbilical vein endothelial cells (HUVEC, Lonza, cat. CC-2519) and human mesenchymal stem cells (hMSC, Lonza, cat. PT-2501) were purchased from Lonza (Walkersville, MD).
Cell Culture. […]

[1] = curve of first compound, second compound 0.1 µM
[2] = curve of first compound, second compound 0.316 µM
[3] = curve of first compound, second compound 1 µM
[4] = curve of first compound, second compound 3.16 µM
[5] = curve of first compound, second compound 10 µM
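Also: compound exposure lasted seven days after spheroids formed for three days.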

Compound `CCN1C(C(=O)NC23CCC(C(=O)O)(CC2)CC3)C(c2cccc(Cl)c2F)C2(C(=O)Nc3cc(Cl)ccc32)C12CCCCC2` (configuration not stated) + Cc1c(S(C)(=O)=O)c(-c2cc(F)cc(N3CCN(c4ccc(NS(=O)(=O)c5ccc(NC(CCN6CCC(C(=O)OCCCP(=O)(O)O)CC6)CSc6ccccc6)c(S(=O)(=O)C(F)(F)F)c5)cc4)CC3)c2)c(-c2ccc(Cl)cc2)n1C(C)C has an IC50 [1] greater than 3000 nM, an IC50 [2] greater than 3000 nM and an IC50 [3] of 1020 nM. The IC50 [4] was 71.7 nM, the IC50 [5] was greater than 3000 nM and the viability, T/C (second compound 0.1 µM, first compound 0.00949 µM) was 80.3%. For the same compound, the viability, T/C (second compound 0.1 µM, first compound 0.03 µM) was 86.6%, the viability, T/C (second compound 0.1 µM, first compound 0.0949 µM) was 84.4% and the viability, T/C (second compound 0.1 µM, first compound 0.3 µM) was 77.4%. It also gave a viability, T/C (second compound 0.1 µM, first compound 0.949 µM) of 77.4%, a viability, T/C (second compound 0.1 µM, first compound 3 µM) of 67% and a viability, T/C (second compound 0.316 µM, first compound 0.00949 µM) of 79.1%. The viability, T/C (second compound 0.316 µM, first compound 0.03 µM) was 74.9%, the viability, T/C (second compound 0.316 µM, first compound 0.0949 µM) was 64.4% and the viability, T/C (second compound 0.316 µM, first compound 0.3 µM) was 60.7%. The viability, T/C (second compound 0.316 µM, first compound 0.949 µM) was 63.3%, the viability, T/C (second compound 0.316 µM, first compound 3 µM) was 54.3% and the viability, T/C (second compound 1 µM, first compound 0.00949 µM) was 66%. The viability, T/C (second compound 1 µM, first compound 0.03 µM) was 66.3%, the viability, T/C (second compound 1 µM, first compound 0.0949 µM) was 68.8% and the viability, T/C (second compound 1 µM, first compound 0.3 µM) was 62.8%. For the same compound, the viability, T/C (second compound 1 µM, first compound 0.949 µM) was 50.8%, the viability, T/C (second compound 1 µM, first compound 3 µM) was 39.7% and the viability, T/C (second compound 3.16 µM, first compound 0.00949 µM) was 53.3%. The viability, T/C (second compound 3.16 µM, first compound 0.03 µM) was 45.1%, the viability, T/C (second compound 3.16 µM, first compound 0.0949 µM) was 53.8% and the viability, T/C (second compound 3.16 µM, first compound 0.3 µM) was 46.5%. The viability, T/C (second compound 3.16 µM, first compound 0.949 µM) was 45.8%, the viability, T/C (second compound 3.16 µM, first compound 3 µM) was 35.6% and the viability, T/C (second compound 10 µM, first compound 0.00949 µM) was 83%. The viability, T/C (second compound 10 µM, first compound 0.03 µM) was 73.3%, the viability, T/C (second compound 10 µM, first compound 0.0949 µM) was 68.4% and the viability, T/C (second compound 10 µM, first compound 0.3 µM) was 68.5%. It also gave a viability, T/C (second compound 10 µM, first compound 0.949 µM) of 52.8% and a viability, T/C (second compound 10 µM, first compound 3 µM) of 52.8%.

In the case of `CCN1CCN(Cc2ccc(Nc3ncc(F)c(-c4cc(F)c5nc(C)n(C(C)C)c5c4)n3)nc2)CC1`, the viability, T/C (compound 0.00316 µM) is reported as 86.4% and 118% and 98.1%, the viability, T/C (compound 0.01 µM) is reported as 95.3% and 99.7% and 103% and the viability, T/C (compound 0.0316 µM) is reported as 97.3% and 110% and 101%. For the same compound, the viability, T/C (compound 0.1 µM) was 94.9% and 96.2% and 93.2%, the viability, T/C (compound 0.316 µM) was 86.4% and 92.8% and 116% and the viability, T/C (compound 1 µM) was 87% and 91.4% and 104%. The IC50 (curve of compound) was greater than 1000 nM.

For `COc1c(OCCCN2CCOCC2)ccc2c3n(c(=NC(=O)c4cnc(N)nc4)nc12)CCN3` + Cc1c(S(C)(=O)=O)c(-c2cc(F)cc(N3CCN(c4ccc(NS(=O)(=O)c5ccc(NC(CCN6CCC(C(=O)OCCCP(=O)(O)O)CC6)CSc6ccccc6)c(S(=O)(=O)C(F)(F)F)c5)cc4)CC3)c2)c(-c2ccc(Cl)cc2)n1C(C)C, the IC50 [1] was 37.8 nM, the IC50 [2] was 14.7 nM and the IC50 [3] was 16.5 nM. The IC50 [4] was 3.18 nM, the IC50 [5] was 9.27 nM and the viability, T/C (second compound 0.1 µM, first compound 0.00316 µM) was 69.7%. For the same compound, the viability, T/C (second compound 0.1 µM, first compound 0.01 µM) was 60.7%, the viability, T/C (second compound 0.1 µM, first compound 0.0316 µM) was 55.6% and the viability, T/C (second compound 0.1 µM, first compound 0.1 µM) was 29.8%. The viability, T/C (second compound 0.1 µM, first compound 0.316 µM) was 18%, the viability, T/C (second compound 0.1 µM, first compound 1 µM) was 12.9% and the viability, T/C (second compound 0.316 µM, first compound 0.00316 µM) was 67.6%. For the same compound, the viability, T/C (second compound 0.316 µM, first compound 0.01 µM) was 56.1%, the viability, T/C (second compound 0.316 µM, first compound 0.0316 µM) was 37.6% and the viability, T/C (second compound 0.316 µM, first compound 0.1 µM) was 32.1%. It also gave a viability, T/C (second compound 0.316 µM, first compound 0.316 µM) of 15.8%, a viability, T/C (second compound 0.316 µM, first compound 1 µM) of 11.1% and a viability, T/C (second compound 1 µM, first compound 0.00316 µM) of 68.3%. The viability, T/C (second compound 1 µM, first compound 0.01 µM) was 58%, the viability, T/C (second compound 1 µM, first compound 0.0316 µM) was 39.5% and the viability, T/C (second compound 1 µM, first compound 0.1 µM) was 26.6%. The viability, T/C (second compound 1 µM, first compound 0.316 µM) was 14%, the viability, T/C (second compound 1 µM, first compound 1 µM) was 10.7% and the viability, T/C (second compound 3.16 µM, first compound 0.00316 µM) was 49.7%. It also gave a viability, T/C (second compound 3.16 µM, first compound 0.01 µM) of 45%, a viability, T/C (second compound 3.16 µM, first compound 0.0316 µM) of 32.7% and a viability, T/C (second compound 3.16 µM, first compound 0.1 µM) of 21.4%. For the same compound, the viability, T/C (second compound 3.16 µM, first compound 0.316 µM) was 12.5%, the viability, T/C (second compound 3.16 µM, first compound 1 µM) was 8.31% and the viability, T/C (second compound 10 µM, first compound 0.00316 µM) was 69.3%. For the same compound, the viability, T/C (second compound 10 µM, first compound 0.01 µM) was 49%, the viability, T/C (second compound 10 µM, first compound 0.0316 µM) was 31.2% and the viability, T/C (second compound 10 µM, first compound 0.1 µM) was 21.1%. For the same compound, the viability, T/C (second compound 10 µM, first compound 0.316 µM) was 12.8% and the viability, T/C (second compound 10 µM, first compound 1 µM) was 9.05%.
